In ChEMBL document CHEMBL1128106, “Oligonucleotide duplex stability controlled by the 7-substituents of 7-deazaguanine bases” (Bioorg Med Chem Lett, 1995) one finds half-life data, which are given here for six compounds.

A short description of data set [1]: Half life (t) of enzymatic phosphodiester hydrolysis of compound towards snake venom (SV-PDE) at a concentration of 4 microg. The settings on record: serpentes, snake venom phosphodiesterase (SV-PDE). It is filed as ADME.
Data set [2] is described as follows: Half life (t) of enzymatic phosphodiester hydrolysis of compound towards calf spleen (CS-PDE) at a concentration of 20 microg. It is filed as ADME, Bos taurus. Particulars: cattle, calf spleen phosphodiesterase (CS-PDE).

Usually half-life stands for how long it takes for the measured level to halve. For `Nc1ccn([C@H]2C[C@H](OP(=O)(O)OC[C@H]3O[C@@H](n4cnc5c(=O)[nH]c(N)nc54)C[C@@H]3OP(=O)(O)OC[C@H]3O[C@@H](n4ccc(N)nc4=O)C[C@@H]3OP(=O)(O)OC[C@H]3O[C@@H](n4cnc5c(=O)[nH]c(N)nc54)C[C@@H]3OP(=O)(O)OC[C@H]3O[C@@H](n4ccc(N)nc4=O)C[C@@H]3OP(=O)(O)OC[C@H]3O[C@@H](n4cnc5c(=O)[nH]c(N)nc54)CC3OP(=O)(O)OC[C@H]3O[C@@H](n4ccc(N)nc4=O)C[C@@H]3O)[C@@H](COP(=O)(O)O[C@H]3C[C@H](n4cnc5c(=O)[nH]c(N)nc54)O[C@@H]3COP(=O)(O)O)O2)c(=O)n1` (some centres not stated), the half-life in data set [1] came out at 2.5 min; in data set [2], 82 min.
For `Nc1nc2c(ncn2[C@H]2C[C@H](O)[C@@H](COP(=O)(O)O[C@H]3C[C@H](n4cc(I)c5c(=O)[nH]c(N)nc54)O[C@@H]3COP(=O)(O)O[C@H]3C[C@H](n4cc(I)c5c(=O)[nH]c(N)nc54)O[C@@H]3COP(=O)(O)O[C@H]3C[C@H](n4cc(I)c5c(=O)[nH]c(N)nc54)O[C@@H]3COP(=O)(O)O[C@H]3C[C@H](n4cc(I)c5c(=O)[nH]c(N)nc54)O[C@@H]3COP(=O)(O)O[C@H]3C[C@H](n4cc(I)c5c(=O)[nH]c(N)nc54)O[C@@H]3COP(=O)(O)O)O2)c(=O)[nH]1` the same measures were 26 min and above 1200 min.
Turning to `COP(=O)(OC[C@H]1O[C@@H](n2ccc(N)nc2=O)C[C@@H]1OP(=O)(O)OC[C@H]1O[C@@H](n2cc(C)c3c(=O)[nH]c(N)nc32)C[C@@H]1OP(=O)(O)OC[C@H]1O[C@@H](n2ccc(N)nc2=O)C[C@@H]1O)O[C@H]1C[C@H](n2cc(C)c3c(=O)[nH]c(N)nc32)O[C@@H]1COP(=O)(O)O[C@H]1C[C@H](n2ccc(N)nc2=O)O[C@@H]1COP(=O)(O)O[C@H]1C[C@H](n2cc(C)c3c(=O)[nH]c(N)nc32)O[C@@H]1COP(=O)(O)O[C@H]1C[C@H](n2ccc(N)nc2=O)O[C@@H]1COP(=O)(O)O[C@H]1C[C@H](n2cc(C)c3c(=O)[nH]c(N)nc32)O[C@@H]1COP(=O)(O)O` (some centres not stated), the results for the half-life in data set [1] and in data set [2] were 16 min and above 1200 min, respectively.
For `COP(=O)(OC[C@H]1O[C@@H](n2ccc(N)nc2=O)C[C@@H]1OP(=O)(O)OC[C@H]1O[C@@H](n2cc(I)c3c(=O)[nH]c(N)nc32)C[C@@H]1OP(=O)(O)OC[C@H]1O[C@@H](n2ccc(N)nc2=O)C[C@@H]1O)O[C@H]1C[C@H](n2cc(I)c3c(=O)[nH]c(N)nc32)O[C@@H]1COP(=O)(O)O[C@H]1C[C@H](n2ccc(N)nc2=O)O[C@@H]1COP(=O)(O)O[C@H]1C[C@H](n2cc(I)c3c(=O)[nH]c(N)nc32)O[C@@H]1COP(=O)(O)O[C@H]1C[C@H](n2ccc(N)nc2=O)O[C@@H]1COP(=O)(O)O[C@H]1C[C@H](n2cc(I)c3c(=O)[nH]c(N)nc32)O[C@@H]1COP(=O)(O)O` (some centres not stated) the same measures were 17 min and above 1200 min.
Taken in the same sequence, the figures for `Nc1nc2c(ccn2[C@H]2C[C@H](OP(=O)(O)OC[C@H]3O[C@@H](n4ccc5c(=O)[nH]c(N)nc54)C[C@@H]3OP(=O)(O)OC[C@H]3O[C@@H](n4ccc5c(=O)[nH]c(N)nc54)C[C@@H]3OP(=O)(O)OC[C@H]3O[C@@H](n4ccc5c(=O)[nH]c(N)nc54)C[C@@H]3OP(=O)(O)OC[C@H]3O[C@@H](n4ccc5c(=O)[nH]c(N)nc54)C[C@@H]3OP(=O)(O)OC[C@H]3O[C@@H](n4cnc5c(=O)[nH]c(N)nc54)C[C@@H]3O)[C@@H](COP(=O)(O)O)O2)c(=O)[nH]1` were 2.5 min and above 1200 min.
Taken in the same sequence, the figures for `COP(=O)(OC[C@H]1O[C@@H](n2ccc(N)nc2=O)C[C@@H]1OP(=O)(O)OC[C@H]1O[C@@H](n2ccc3c(=O)[nH]c(N)nc32)C[C@@H]1OP(=O)(O)OC[C@H]1O[C@@H](n2ccc(N)nc2=O)C[C@@H]1O)O[C@H]1C[C@H](n2ccc3c(=O)[nH]c(N)nc32)O[C@@H]1COP(=O)(O)O[C@H]1C[C@H](n2ccc(N)nc2=O)O[C@@H]1COP(=O)(O)O[C@H]1C[C@H](n2ccc3c(=O)[nH]c(N)nc32)O[C@@H]1COP(=O)(O)O[C@H]1C[C@H](n2ccc(N)nc2=O)O[C@@H]1COP(=O)(O)O[C@H]1C[C@H](n2ccc3c(=O)[nH]c(N)nc32)O[C@@H]1COP(=O)(O)O` (some centres not stated) were 1.3 min and around 1000 min.
